In brackets after ≈: the same amount, converted by molar mass.
Columns and labels:
V79 = experiment: Cytotoxicity against chinese hamster V79 cells; assay type: cell-based; details: Cricetulus griseus
HL-60 = experiment: Cytotoxicity against human HL60 cells; assay type: functional, cell-based
MDA-MB-468 = experiment: Cytotoxicity against human MDA-MB-468 cells; assay type: functional, cell-based
PC-3 = experiment: Cytotoxicity against human PC3 cells; assay type: functional, cell-based
MIA PaCa-2 = experiment: Cytotoxicity against human MIAPaCa2 cells; assay type: functional, cell-based
Candida albicans = experiment: Antifungal activity against Candida albicans assessed as inhibition zone at 2 ug/disk; assay type: functional; details: read-out: IZ
HCT-116 = experiment: Cytotoxicity against human HCT116 cells; assay type: functional, cell-based
MCF7 = experiment: Cytotoxicity against human MCF7 cells; assay type: functional, cell-based
Ruegeria atlantica = experiment: […] activity against Ruegeria atlantica assessed as inhibition zone at 50 ug/disk; assay type: functional; details: read-out: IZ
DLD-1 = experiment: Cytotoxicity against human DLD1 cells; assay type: functional, cell-based
MDA-MB-231 [1] = experiment: Cytotoxicity against human MDA-MB-231 cells; assay type: functional, cell-based
ACHN = experiment: Cytotoxicity against human ACHN cells; assay type: functional, cell-based
NCI-H460 = experiment: Cytotoxicity against human NCI-H460 cells; assay type: functional, cell-based
HT-29 = experiment: Cytotoxicity against human HT-29 cells; assay type: functional, cell-based
MDA-MB-231 [2] = experiment: Cytotoxicity against human MDA231 cells; assay type: functional, cell-based
UMUC3 = experiment: Cytotoxicity against human UM-UC-3 cells; assay type: functional, cell-based

Question: What does the source list for `COc1c(SC)c(CCN(C)C)c2sc3c(CCN(C)C)c(SC)c(OC)c(OC)c3ssc2c1OC` [LISSOCLINOTOXIN F]?
Answer: IC50 (V79): 280 nM; IC50 (HL-60): 230 nM; IC50 (MDA-MB-468): 4.2 µg/mL (≈ 6.97 µM)

Question: Which results are given for `COc1cc(CCN)c2c(c1OC)SSSSS2` [VARACIN]?
Answer: IC50 (PC-3): 0.6 nM; IC50 (MIA PaCa-2): 1.8 nM; zone of inhibition at 2 µg/disc (Candida albicans): 14 mm; IC90 (HCT-116): 0.05 µg/mL (≈ 0.147 µM); IC50 (MCF7): 1.69 nM

Question: What does the source list for `COc1c(SC)c(CCN(C)C)c2sc3c(OC)c(OC)c(SC)c(CCN(C)C)c3ssc2c1OC` [LISSOCLIBADIN 2]?
Answer: IC50 (HCT-116): 140 nM; IC50 (V79): 210 nM; IC50 (HL-60): 80 nM; zone of inhibition at 50 µg/disc (Ruegeria atlantica): 28.2 mm; IC50 (DLD-1): 100 nM; IC50 (MDA-MB-231 [1]): 200 nM; IC50 (ACHN): 240 nM; IC50 (NCI-H460): 270 nM

Question: For `COc1cc(CCN)c2c(c1OC)SS[S+]2[O-]` (stereo unspecified), which IC50 (HT-29) is on record?
Answer: The IC50 was 2.4 to 11.9 nM.

Question: And the IC50 (PC-3)?
Answer: The IC50 was 2.4 to 11.9 nM.

Question: And the IC50 (MDA-MB-231 [2])?
Answer: Its IC50 is 2.4 to 11.9 nM.

Question: And the IC50 (UMUC3)?
Answer: The IC50 was 2.4 to 11.9 nM.

Question: And the IC50 (MIA PaCa-2)?
Answer: Its IC50 is 2.4 to 11.9 nM.
